Measured values: patent US20180360972A1, “THERAPEUTIC COMPOUNDS” (REGENTS OF THE UNIVERSITY OF MINNESOTA, priority 2017, published 2018)
Entries after “also recorded” stand apart in the source; their conditions may differ. Square brackets hold non-standard residues; d marks the D form. Peptide text beside a SMILES is read from it.

Assays:
hMC4R [1] = target: T1, hMC4R (Homo sapiens, UniProt P32245); assay: β-Arrestin Recruitment | EC50 (nM)
T1 construct: Flag; expressed in transfected cells
Target sequence in this assay (P32245 whole entry, looked up): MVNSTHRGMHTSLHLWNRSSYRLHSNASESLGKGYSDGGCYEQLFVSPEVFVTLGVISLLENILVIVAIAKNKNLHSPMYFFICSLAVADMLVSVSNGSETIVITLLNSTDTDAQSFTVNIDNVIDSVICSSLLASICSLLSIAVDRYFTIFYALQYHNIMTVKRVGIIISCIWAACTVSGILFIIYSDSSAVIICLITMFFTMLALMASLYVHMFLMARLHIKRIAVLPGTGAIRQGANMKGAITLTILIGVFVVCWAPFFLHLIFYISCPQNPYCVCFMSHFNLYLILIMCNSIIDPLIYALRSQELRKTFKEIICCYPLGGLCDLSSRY

hMC4R [2] = target: T1, hMC4R; assay: cAMP Signaling | EC50 (nM)
Procedure: Table printed on a drawing sheet, Figure 20
The cAMP signaling potency was determined by AlphaScreen™ assays. […] The reported errors are the standard error of the mean (SEM) determined from at least three independent experiments. Changes less than 3-fold were considered to be within the inherent experimental assay error.
Target sequence in this assay (P32245 whole entry, looked up): as above

hMC4R [3] = target: T1, hMC4R; assay: PRESTO-Tango β-arrestin recruitment assay; assay type: cell-based; settings: at 10 μM
Procedure: The PRESTO-Tango technology is an open-source resource that has been utilized to identify ligands for orphan receptors based on β-arrestin recruitment.
The plasmids and assay technology was kindly provided by the Bryan Roth laboratory (University of North Carolina at Chapel Hill) and are now available through ADDGENE (Kit # 1000000068).
The first day of the assay, HTLA cells were plated at approximately 1×10^6 cells per 10 cm plate and grown to 20-40% confluency. […] The third day, cells were removed from 10 cm plates using Gibco® Versene solution and pelleted by centrifugation (Sorvall Super T21 high speed centrifuge, swinging bucket rotor) at 800 rpm for five minutes at room temperature. Cells were manually counted on a hemocytometer and resuspended in 1% dialyzed FBS and 1% penicillin/streptomycin in DMEM to a final concentration of 400,000 cells/mL. […] Stimulated cells were incubated for 18 hours in 5% CO2 at 37° C. On the fifth day, the assay buffer and cell medium was removed by aspiration. […] After incubation, luminescence was then read on an EnSpire™ Alpha plate reader using a pre-normalized assay protocol for luminescence set by the manufacturer. Dose response curves were analyzed using the PRISM program (v4.0; GraphPad Inc.).
Target sequence in this assay (P32245 whole entry): as the sequence (P32245 whole entry, looked up) above

[4] = target: mMC4R-NanoLuc and mMC4R-HaloTag homodimer (Mus musculus, UniProt P56450); assay: NanoBRET ligand-dependent modulation of BRET signal; settings: for change in BRET signal (in words): 10^−5, 10^−7 and 10^−9 M vs assay buffer; for reduction in BRET signal compared to basal signal: ligand at 10 μM
Procedure: On the first day, cells were plated into 6 well plates in the morning. In the afternoon of the same day, cells were transiently transfected with mMC4R-NanoLuc® fusion protein and the MC4R-HaloTag® fusion protein by adding FuGene6 Transfection (8 μL/well, Promega), DNA (2 μg/well) in OptiMem medium (Invitrogen) at a total volume of 100 μL/well. […] Cells were incubated with transfection reagent overnight at 5% CO2 at 37° C.
This provides the background signal and was subtracted from the final experimental signal. Plates were then developed 48 to 60 hours after transfection. Two hours before the plates were developed, 10 μL of a 10× aliquot of the ligand diluted in assay buffer was added to each well to yield the final in well concentration (10^−5, 10^−7, or 10^−9M) of each compound. For the assay buffer control, 10 μL of assay buffer was added instead of compound. […] The standard error of the mean (SEM) was derived from at least three independent experiments.

hMC4R [5] = target: T1, hMC4R; assay: AlphaScreen cAMP functional bioassay, hMC4R; assay type: cell-based; settings: HEK293 cells stably expressing hMC4R
Procedure: Upon agonist stimulation, melanocortin receptors are known to signal through a Gαs-protein mediated signaling pathway that results in intracellular cAMP accumulation.
Stable populations were selected for using G418 selection (0.7-1.0 mg/mL) and used in bioassays unless indicated otherwise. In vitro experimental ligands were dissolved to a 10^−2 M stock in DMSO and stored at −20° C. Subsequent dilutions were performed in each assay's specific buffer to achieve the final concentration in the well. The ligands were assayed as TFA salts.
AlphaScreen cAMP Functional Bioassay
The AlphaScreen® assay was performed as described by manufacturer.
Cells were removed from plates using Gibco® Versene solution and pelleted by centrifugation (Sorvall Super T21 high speed centrifuge, swinging bucket rotor) at 800 rpm for five minutes. […] A 10 μL aliquot of cell suspension was counted manually using a hemocytometer after addition of Trypan blue dye (BioRad). Cells were again pelleted by centrifugation, and DPBS was gently aspirated. The pelleted cells were then resuspended in a solution of freshly made stimulation buffer (Hank's Balanced Salt Solution [HBSS 10× [−] sodium bicarbonate] and [−] phenol red, Gibco®], 0.5 mM isobutylmethylxanthine [IBMX], 5 mM HEPES buffer solution [1M, Gibco®], 0.1% bovine serum albumin [BSA] in Milli-Q water, pH=7.4) and anti-cAMP acceptor beads (1.0 unit per well, AlphaScreen®). […] The cells were then stimulated with ligand diluted in stimulation buffer to achieve their final concentrations in the well ranging from 10^−13 to 10^−4 M. The stimulated plates were incubated in a dark laboratory drawer at room temperature for two hours.
Meanwhile, a biotinylated cAMP/streptavidin donor bead working solution was made by adding biotinylated cAMP (1 Unit/well, AlphaScreen®) and streptavidin donor beads (1 Unit/well, AlphaScreen®) to a lysis buffer (10% Tween-20, 5 mM HEPES buffer solution [1M, Gibco®], 0.1% bovine serum albumin [BSA] in Milli-Q water, pH=7.4). After the two hour stimulation, the biotinylated cAMP/Streptavidin donor bead working solution was added to each well under green light and mixed well by pipetting up and down. The cells were incubated for another two hours at room temperature in a dark drawer at room temperature. The plate was then read on an EnSpire™ Alpha plate reader using a pre-normalized assay protocol set by the manufacturer. Assays were performed with duplicate data points on each plate and repeated in at least three independent experiments.
Dose response curves were analyzed using the PRISM program (v4.0; GraphPad Inc.).
Target sequence in this assay (P32245 whole entry): as the sequence (P32245 whole entry, looked up) above

male MC4RKO mice = assay: ICV administration, conventional cages, male MC4RKO mice; assay type: in vivo; settings: ICV 2.5 to 5 nmols; conventional cages
Procedure: (§1) All experiments were performed in accordance with the Institutional Animal Care and Use Committee (IACUC) at the University of Minnesota. Female and male littermates with mixed background from C57BL/6J and 129/Sv inbred strains were 8 weeks old at the time of surgeries. Mice were individually housed after surgeries and for the remainder of the experiment. Mice were maintained on a 12 hr light/dark cycle (Lights off was at 11:59 AM) in a temperature controlled room (23-25° C.). In the nocturnal feeding paradigm, mice had free access to normal chow (Harlan Teklad 2018 Diet: 18.6% crude protein, 6.2% crude fat, 3.5% crude fiber, with energy density of 3.1 kcal/g). […] Mice had free access to tap water throughout all the experiments. The cannula placement validation studies and conventional cage studies were performed in standard mouse polycarbonate conventional cages provided by University of Minnesota's Research Animal Resources (RAR). Weekly cage changes were conducted by lab research staff.
(§2) Mice were anesthetize with a mixture of ketamine (100 mg/kg) and xylazine (5 mg/kg) and were positioned in a stereotaxic apparatus (David Kopf Instruments). A 26-gauge cannula (Cat# 81C315GS4SPC; PlasticsOne, Roanoke, Va.) was inserted in the lateral cerebral ventricle at the coordinates 1.0 mm lateral and 0.46 mm posterior to bregma and 2.3 mm ventral to the skull (Franklin, K. B. J. & Paxinos, G. The Mouse Brain in Stereotaxic Coordinates. (Academic Press, 1997)).
(§3) As stated above, conventional cage experiments were performed in standard mouse polycarbonate conventional cages. […] All experiments followed a cross-over paradigm in which the mouse received saline and compound on different days with a washout period in between each treatment. Statistical analysis was performed using SPSS V23 software (IBM) using a multivariate general linear model followed by a Bonferroni's post hoc test. Results are presented as Mean±SEM. Statistically significant was considered p<0.05.
In male MC4RKO mice, CJL-5-58 was administered at 5 nmols in both a nocturnal paradigm and a fasting-refeeding paradigm in standard conventional cages (FIG. 15). The dose was well handled in the nocturnal paradigm, but minimal effect was observed.

male wild type mice = assay type: in vivo; settings: nocturnal paradigm; 5.0 or 2.5 nmols CJL-1-124
Procedure: as §1, §2
(§4) Each mouse was administered hPYY and saline on different days following a crossover design in the nocturnal feeding paradigm. In the nocturnal paradigm, compound is administered 2 hours prior to lights out with free access to food and water throughout the entire experiment. There was at least a 4 day washout period between administration to ensure that normal feeding patterns and body weight returned. Food intake and body weight were manually measured 2, 4, and 6 hours after hPYY or saline administration. A mouse with a validated cannula placement for the TSE cage experiments consumed at least 1.0 g more after hPYY administration compared to saline administration 4 hours post-administration.
as §3

male MC3RKO mice = assay: ICV administration, TSE metabolic cages, male MC3RKO mice; assay type: in vivo; settings: nocturnal paradigm; 2.5 to 5 nmols
Procedure: as §1, §2, §3
In order to more clearly understand the effects of the biased agonism at the MC4R, the effects of administration of CJL-5-58 was explored in MC3R knockout (KO) mice and MC4RKO mice. […] Adverse reactions included two mice dying after the 5 nmol dose. […] The large error in activity may serve as an indication of toxicity. It is currently difficult to decipher whether the adverse reactions observed are due to paradigm effects, genotype difference, or compound toxicity.

wild type mice = assay: ICV administration, conventional cages, wild type mice; assay type: in vivo; settings: preliminary conventional cage experiments; fasting paradigm
Procedure: as §1, §2, §4, §3

Sequence of mMC4R-NanoLuc and mMC4R-HaloTag homodimer (P56450 whole entry): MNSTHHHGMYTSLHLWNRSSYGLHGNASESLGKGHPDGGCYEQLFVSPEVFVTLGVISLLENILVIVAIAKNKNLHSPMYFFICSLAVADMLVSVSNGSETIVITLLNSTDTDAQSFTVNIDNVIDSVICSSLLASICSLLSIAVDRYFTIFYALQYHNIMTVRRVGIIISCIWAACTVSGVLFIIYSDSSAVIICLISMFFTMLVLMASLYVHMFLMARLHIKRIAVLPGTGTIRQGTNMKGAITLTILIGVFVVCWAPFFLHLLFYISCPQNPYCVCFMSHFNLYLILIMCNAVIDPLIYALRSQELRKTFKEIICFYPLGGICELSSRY
Sequence of mMC4R-NanoLuc and mMC4R-HaloTag homodimer (P56450 whole entry): as above

Compound | EC50 (hMC4R [1]) [nM] | EC50 (hMC4R [2]) [nM] | change in BRET signal (in words) [4] | reduction in BRET signal compared to basal signal [4] [%] | also measured
CC(=O)N[C@@H](Cc1c[nH]cn1)C(=O)N[C@H](Cc1ccccc1)C(=O)N[C@@H](CCCNC(=N)N)C(=O)N[C@@H](Cc1c[nH]c2ccccc12)C(=O)N1CCC[C@H]1C(=O)NCC(=O)N1CCC[C@H]1C(=O)NCC(=O)N1CCC[C@H]1C(=O)NCC(=O)N1CCC[C@H]1C(=O)NCC(=O)N1CCC[C@H]1C(=O)NCC(=O)N1CCC[C@H]1C(=O)NCC(N)=O [CJL5-35-1, Ac-His-DPhe-Arg-Trp-(Pro-Gly)6-NH2] (Ac-H[dF]RWPGPGPGPGPGPG-NH2) | 1600 ± 600 | 5.5 ± 0.7 | – | – | –
CC(=O)N[C@@H](Cc1c[nH]cn1)C(=O)N[C@H](Cc1ccccc1)C(=O)N[C@@H](CCCNC(=N)N)C(=O)N[C@@H](Cc1c[nH]c2ccccc12)C(=O)N1CCC[C@H]1C(=O)NCC(=O)N1CCC[C@H]1C(=O)NCC(=O)N1CCC[C@H]1C(=O)NCC(=O)N1CCC[C@H]1C(=O)NCC(=O)N1CCC[C@H]1C(=O)NCC(=O)N1CCC[C@H]1C(=O)NCC(=O)N[C@@H](Cc1c[nH]cn1)C(=O)N[C@H](Cc1ccccc1)C(=O)N[C@@H](CCCNC(=N)N)C(=O)N[C@@H](Cc1c[nH]c2ccccc12)C(N)=O [CJL-1-31, Ac-His-DPhe-Arg-Trp-(Pro-Gly)6-His-DPhe-Arg-Trp-NH2] (Ac-H[dF]RWPGPGPGPGPGPGH[dF]RW-NH2) | 1900 ± 600 | 0.95 ± 0.08 | – | – | –
CC(=O)N[C@@H](Cc1c[nH]cn1)C(=O)N[C@H](Cc1ccc2ccccc2c1)C(=O)N[C@@H](CCCNC(=N)N)C(=O)N[C@@H](Cc1c[nH]c2ccccc12)C(N)=O [CJL-1-80, Ac-His-DNal(2′)-Arg-Trp-NH2] | – | – | no significant changes in BRET signal | – | β-arrestin response compared to maximal efficacy of NDP-MSH (hMC4R [3]): 30%
CC(=O)N[C@@H](Cc1c[nH]cn1)C(=O)N[C@H](Cc1ccccc1)C(=O)N[C@@H](CCCNC(=N)N)C(=O)N[C@@H](Cc1c[nH]c2ccccc12)C(=O)NCCCOCCOCCOCCCNC(=O)COCC(=O)N[C@@H](Cc1c[nH]cn1)C(=O)N[C@H](Cc1ccccc1)C(=O)N[C@@H](CCCNC(=N)N)C(=O)N[C@@H](Cc1c[nH]c2ccccc12)C(N)=O [CJL-1-87] | – | – | – | ~15 | –
CC(=O)N[C@@H](Cc1cnc[nH]1)C(=O)N[C@H](Cc1ccc2ccccc2c1)C(=O)N[C@@H](CCCNC(=N)N)C(=O)N[C@@H](Cc1c[nH]c2ccccc12)C(=O)NCCCOCCOCCOCCCNC(=O)COCC(=O)N[C@@H](Cc1cnc[nH]1)C(=O)N[C@H](Cc1ccccc1)C(=O)N[C@@H](CCCNC(=N)N)C(=O)N[C@@H](Cc1c[nH]c2ccccc12)C(N)=O [CJL-1-124, Ac-His-DNal(2′)-Arg-Trp-(PEDG20)-His-DPhe-Arg-Trp-NH2] | – | – | – | ~8 | cAMP agonist potency (in words) (hMC4R [5]): single digit nanomolar agonists; toxicity (male MC4RKO mice): some signs of toxicity were observed; also recorded: Some toxicity was observed; adverse reactions / toxicity (male wild type mice): some signs of adverse reactions observed at higher 5 nmol dose; also recorded: Some toxicity was observed; adverse reactions / toxicity (male MC3RKO mice): some signs of toxicity were observed; also recorded: Some toxicity was observed; adverse effects (wild type mice): strong adverse effects
Ac-His-DNal(2′)-Arg-Trp-(PEDG20)-(PEDG20)-His-DPhe-Arg-Trp-NH2 [CJL-5-74, MUmBL; linker assigned from order of b161-b164 and b248] | – | – | – | – | cAMP agonist potency (in words) (hMC4R [5]): single digit nanomolar agonists
Ac-His-DPhe-Arg-Trp-NH2 [CJL-1-14] | – | – | dose dependent decrease in BRET signal | 15 | –

More lines, main results first:

EC50 (hMC4R [1]) [nM] | EC50 (hMC4R [2]) [nM] | change in BRET signal (in words) [4] | Compound | reduction in BRET signal compared to basal signal [4] [%] | also measured
1500 ± 500 | 1.1 ± 0.07 | – | N=C(N)NCCC[C@H](NC(=O)[C@@H](Cc1ccccc1)NC(=O)[C@H](Cc1c[nH]cn1)NC(=O)CNC(=O)[C@@H]1CCCN1C(=O)CNC(=O)[C@@H]1CCCN1C(=O)CNC(=O)[C@@H]1CCCN1C(=O)CNC(=O)[C@@H]1CCCN1C(=O)CNC(=O)[C@@H]1CCCN1C(=O)CNC(=O)[C@@H]1CCCN1)C(=O)N[C@@H](Cc1c[nH]c2ccccc12)C(N)=O [CJL-1-41, (Pro-Gly)6-His-DPhe-Arg-Trp-NH2] (H-PGPGPGPGPGPGH[dF]RW-NH2; N-terminus assumed) | – | –
280 ± 40 | 1.2 ± 0.3 | – | CC(=O)N[C@@H](Cc1c[nH]cn1)C(=O)N[C@H](Cc1ccccc1)C(=O)N[C@@H](CCCNC(=N)N)C(=O)N[C@@H](Cc1c[nH]c2ccccc12)C(=O)NCCCOCCOCCOCCCNC(=O)COCC(=O)NCCCOCCOCCOCCCNC(=O)COCC(=O)N[C@@H](Cc1c[nH]cn1)C(=O)N[C@H](Cc1ccccc1)C(=O)N[C@@H](CCCNC(=N)N)C(=O)N[C@@H](Cc1c[nH]c2ccccc12)C(N)=O [CJL-5-72, Ac-His-DPhe-Arg-Trp-(PEDG20)-(PEDG20)-His-DPhe- Arg-Trp-NH2] | – | –
– | – | dose dependent decrease in BRET signal | α-MSH | 15 | –
